Assay results as given in PubChem BioAssay (NCI).
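Dose response: 5 concentrations. Exposure: 48 h. Format: 96-well plates. Endpoint: linear interpolation; highest concentration if not reached. GI50 = concentration required for 50% inhibition of growth. TGI: total growth inhibition.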

Columns and labels:
Experiment in all cases: NCI tumour cell line growth inhibition, 48 h
M14 melanoma = system: M14 melanoma
NCI-H23 lung = system: NCI-H23 lung
HCC-2998 colon = system: HCC-2998 colon
OVCAR-5 ovarian = system: OVCAR-5 ovarian
IGROV1 ovarian = system: IGROV1 ovarian
HOP-92 NSCLC = system: HOP-92 NSCLC
OVCAR-3 ovarian = system: OVCAR-3 ovarian
BT-549 breast = system: BT-549 breast
SK-OV-3 ovarian = system: SK-OV-3 ovarian
TK-10 renal = system: TK-10 renal

Compound | GI50 (M14 melanoma) [µM] | TGI (M14 melanoma) [µM] | GI50 (NCI-H23 lung) [µM] | TGI (NCI-H23 lung) [µM] | GI50 (HCC-2998 colon) [µM] | TGI (HCC-2998 colon) [µM] | GI50 (OVCAR-5 ovarian) [µM] | TGI (OVCAR-5 ovarian) [µM] | GI50 (IGROV1 ovarian) [µM] | TGI (IGROV1 ovarian) [µM] | GI50 (HOP-92 NSCLC) [µM] | TGI (HOP-92 NSCLC) [µM] | GI50 (OVCAR-3 ovarian) [µM] | TGI (OVCAR-3 ovarian) [µM] | GI50 (BT-549 breast) [µM] | TGI (BT-549 breast) [µM] | GI50 (SK-OV-3 ovarian) [µM] | TGI (SK-OV-3 ovarian) [µM] | GI50 (TK-10 renal) [µM] | TGI (TK-10 renal) [µM]
O=P(CCCCP(=O)(c1ccccc1)c1ccccc1)(c1ccccc1)c1ccccc1.[Cl][Sn]([Cl])([c]1ccccc1)[c]1ccccc1 | 1.77 | 3.81 | 1.48 | 3.48 | 2.76 | 10.1 | 1.93 | 4 | 3.9 | 8.39 | 1.56 | 3.18 | 1.61 | 3.99 | 1.79 | 3.86 | 6.25 | 19 | 1.77 | 3.32
O=c1[nH]c(=O)c2cc(C3CC(O)C(CO)O3)ccc2[nH]1 (stereo not drawn) | > 100 | > 100 | > 100 | > 100 | > 100 | > 100 | > 100 | > 100 | > 100 | > 100 | > 100 | > 100 | > 100 | > 100 | > 100 | > 100 | > 100 | > 100 | – | –
S=c1ssc(Oc2ccccc2)c1Cl | 18 | 43.2 | 12.6 | 50.9 | 3.7 | 14.7 | 23.2 | 49.9 | – | – | 14.8 | 36.2 | 7.74 | 20.4 | 12.7 | 31.7 | 39.4 | > 100 | 3 | 9.68
FC(F)(F)c1ccc(C#Cc2ccccc2C#Cc2ccccc2)cc1 | 44.3 | > 100 | 49 | > 100 | 32.7 | 53.1 | 48.7 | > 100 | > 100 | > 100 | – | – | 29.5 | 91.9 | > 100 | > 100 | 32.6 | > 100 | 31.7 | > 100
COC(=O)C1CCCN1C(=O)[C@@H]1CCCN1C(=O)[C@H](Cc1c[nH]c2ccccc12)NC(=S)Nc1cc(C(F)(F)F)cc(C(F)(F)F)c1 (stereo partly drawn) | 2.19 | 5.23 | 2.78 | 10 | 1.96 | 4.5 | – | – | 3.34 | 10.9 | – | – | 2.03 | 3.85 | 2.88 | 8.03 | 2.95 | 11.4 | 2.11 | 5
Cc1cc(=O)[nH]c2cc3c(c4c(n3Cc3ccc(Cl)cc3Cl)CC(C)(C)CC4=O)c(O)c12 | 71.3 | > 100 | 39.6 | > 100 | > 100 | > 100 | – | – | > 100 | > 100 | 54.2 | > 100 | > 100 | > 100 | 19.6 | 64.2 | > 100 | > 100 | > 100 | > 100
